Experiments:
rMal d 3 = target: T1, rMal d 3 (Malus domestica, UniProt Q9M5X7); assay: ANS displacement fluorescence; assay type: binding; conditions: 50 μmol/L ligand, protein:ligand 1:5
T1 construct: gene MALD3; recombinant, produced in Pichia pastoris, purified
T1 sequence (Q9M5X7 25-115): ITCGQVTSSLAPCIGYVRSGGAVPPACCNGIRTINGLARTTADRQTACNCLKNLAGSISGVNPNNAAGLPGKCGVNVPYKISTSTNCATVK

rCor a 8 = target: T2, rCor a 8 (Corylus avellana, UniProt Q9ATH2); assay: ANS displacement fluorescence; assay type: binding; conditions: 50 μmol/L ligand, protein:ligand 1:5
T2 construct: recombinant, produced in Pichia pastoris, purified
T2 sequence (Q9ATH2 24-115): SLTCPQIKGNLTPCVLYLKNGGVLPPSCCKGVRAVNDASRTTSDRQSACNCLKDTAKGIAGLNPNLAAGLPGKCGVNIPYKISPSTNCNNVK

Row | Compound | % reduction of ANS fluorescence at 50 μmol/L (rMal d 3) [%] | % reduction of ANS fluorescence at 50 μmol/L (rCor a 8) [%]
1 | CCCCCCCC/C=C\CCCCCCCC(=O)O [OLE, oleic acid] | 59 | 23
2 | CCCCCCCCCCCCCCCCCC(=O)O [STE, stearic acid] | 17 | 
